Broadly, the half-life is the time in which the quantity being followed falls by half. High values mean slow loss, low ones fast loss.

Where two headings read alike, the source gives them in different places. *1 amine or outer side, *2 acyl side, *3 side chain or, on linkers, in order; H or OH if unused. Where a SMILES comes first, the peptide text is derived from it. Bridges are numbered along the chain shown (N, C = ends). Roman numbers before positions name the chains, in order. [ ]: non-standard residue; d: D form. Phe(4-CF3) = N[C@@H](Cc1ccc(C(F)(F)F)cc1)C(=O)O; Diglycolyl = O=C(COCC(=O)[*:2])[*:1]; NMeR = CN[C@@H](CCCNC(=N)N)C(=O)O; β3hE = N[C@@H](CCC(=O)O)CC(=O)O; X1 = O=C(c1ccccc1C[*:2])[*:1]; Pen = CC(C)(S)[C@H](N)C(=O)O; hCys = N[C@@H](CCS)C(=O)O

Among the data in patent US20260217767A1, “NOVEL A4B7 THIOETHER PEPTIDE DIMER ANTAGONISTS” (Protagonist Therapeutics, Inc., priority 2014, published 2026) are IC50 and half-life values, retold here.

The target in one data set is T1, α4β1 (Homo sapiens, UniProt P05556+P13612).
T1 construct: purchased R&D Systems 5668-A4
T1 sequence (P13612 34-977 limits assumed): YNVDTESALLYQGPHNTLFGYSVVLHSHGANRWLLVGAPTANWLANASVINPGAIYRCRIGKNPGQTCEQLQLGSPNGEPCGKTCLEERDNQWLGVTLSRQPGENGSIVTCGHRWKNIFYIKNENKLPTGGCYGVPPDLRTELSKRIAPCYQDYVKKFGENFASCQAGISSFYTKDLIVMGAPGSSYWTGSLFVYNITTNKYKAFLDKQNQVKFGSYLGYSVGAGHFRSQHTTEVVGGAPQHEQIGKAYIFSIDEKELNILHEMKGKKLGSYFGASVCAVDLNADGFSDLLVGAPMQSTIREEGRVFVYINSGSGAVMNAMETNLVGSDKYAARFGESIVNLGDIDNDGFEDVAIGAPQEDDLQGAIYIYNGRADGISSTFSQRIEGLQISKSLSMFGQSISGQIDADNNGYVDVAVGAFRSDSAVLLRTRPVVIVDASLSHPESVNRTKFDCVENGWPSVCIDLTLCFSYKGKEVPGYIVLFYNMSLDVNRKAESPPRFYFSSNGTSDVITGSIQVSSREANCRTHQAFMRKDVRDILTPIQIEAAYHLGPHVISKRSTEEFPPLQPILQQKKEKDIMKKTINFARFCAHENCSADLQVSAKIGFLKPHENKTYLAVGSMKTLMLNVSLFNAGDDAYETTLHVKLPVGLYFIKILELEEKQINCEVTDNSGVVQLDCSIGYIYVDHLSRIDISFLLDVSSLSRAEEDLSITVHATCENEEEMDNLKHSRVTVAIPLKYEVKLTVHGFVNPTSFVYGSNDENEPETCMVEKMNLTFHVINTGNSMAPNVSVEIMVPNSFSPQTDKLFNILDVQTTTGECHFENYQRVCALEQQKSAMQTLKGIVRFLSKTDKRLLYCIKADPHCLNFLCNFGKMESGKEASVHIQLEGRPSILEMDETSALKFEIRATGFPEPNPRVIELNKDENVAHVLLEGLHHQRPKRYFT
T1 sequence (P05556 21-728 limits assumed): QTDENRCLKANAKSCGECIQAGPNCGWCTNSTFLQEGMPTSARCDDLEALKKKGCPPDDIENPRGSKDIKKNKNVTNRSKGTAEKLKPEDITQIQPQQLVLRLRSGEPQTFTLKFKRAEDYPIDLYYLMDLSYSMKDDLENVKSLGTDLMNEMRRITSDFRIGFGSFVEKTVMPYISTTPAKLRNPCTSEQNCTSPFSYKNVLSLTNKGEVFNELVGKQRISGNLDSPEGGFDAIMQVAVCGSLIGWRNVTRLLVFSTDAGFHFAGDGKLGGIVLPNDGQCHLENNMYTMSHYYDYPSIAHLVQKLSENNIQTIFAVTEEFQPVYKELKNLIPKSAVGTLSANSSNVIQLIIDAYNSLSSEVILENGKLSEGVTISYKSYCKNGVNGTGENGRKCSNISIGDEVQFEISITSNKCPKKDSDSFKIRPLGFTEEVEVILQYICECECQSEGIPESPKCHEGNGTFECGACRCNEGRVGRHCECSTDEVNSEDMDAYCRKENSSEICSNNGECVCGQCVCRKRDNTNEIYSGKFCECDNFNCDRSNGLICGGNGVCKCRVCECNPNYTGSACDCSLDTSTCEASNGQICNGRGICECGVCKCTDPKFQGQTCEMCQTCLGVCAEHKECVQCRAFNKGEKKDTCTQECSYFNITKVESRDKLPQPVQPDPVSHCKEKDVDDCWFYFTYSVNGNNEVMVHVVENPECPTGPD
The data set can be described thus: α4β1-VCAM Competition ELISA. The data set is classed as binding. The conditions noted are these: read-out: ELISA A4B1. How it is done:
α4β1-VCAM Competition ELISA
A Nunc MaxiSorp plate was coated with rh VCAM-1/CD106 Fc chimera (R&D #862-VC) at 400 ng/well in 50 ul per well in 1×PBS and incubated overnight at 4° C. The solution was removed by shaking and then blocked with 250 ul of 1% BSA in 1×PBS per well. The wells were then incubated at room temperature for 1 hr with shaking. Each well was then washed once with wash buffer (50 mM Tris-HCl pH7.6, 100 mM NaCL, 1 mM MnCl2 or MgCl2, 0.05% Tween-20). 25 ul of serial dilutions of peptides starting at 200 μM in assay buffer (Assay buffer: 50 mM Tris-HCl pH7.6, 100 mM NaCl, 1 mM MnCl2 or MgCl2, 0.05% Tween-20) was added to each well. Additionally, 25 μl of α4β1 (R&D Systems #5668-A4) was added to each well at a fixed concentration of 120 nM. The final peptide and α4β1 concentrations were 100 μM and 60 nM, respectively. The plates were then incubated at 37° C. for 2 hr. The solution was then removed by shaking and each well was washed three times with wash buffer. 50 ul of 9F10 antibody at 4 ug/ml (purified mouse anti-human CD49d, BD Bioscience Cat #555502) was then added to each well, and the plate was incubated at room temperature for Ihr with shaking. The solution was again removed by shaking, and each well was washed three times with wash buffer. 50 μl of peroxidase-conjugated AffiniPure Goat anti-mouse IgG (Jackson immune research cat #115-035-003) diluted in 1:5000 in assay buffer was added to each well. The plate was incubated at room temperature for 30 min with shaking. Each well was then washed 3 times with wash buffer. 100 ul of TMB was then added to each well and closely observe during developing time. The reaction was stepped with 2N H2SO4 and absorbance was read at 450 nm.

A short description of data set [1]: Simulated Intestinal Fluid (SIF) Stability Assay. The conditions noted are these: pig, 37° C.; for half-life at 22 μM: simulated intestinal fluid (SIF) with 1% porcine pancreatin, pH 6.5, porcine pancreatin; for half-life: porcine pancreatin. The data set is classed as in vitro ADME. Summed up:
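Peptide at 22 μM final was incubated at 37° C in blank FaSSIF pH 6.5 with 1% porcine pancreatin. Timed samples were quenched in acetonitrile/methanol/formic acid with internal standard and analysed by LC-MS/MS. Half-lives came from first-order exponential fits of percent remaining.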

The next data set has as its target Jurkat E6.1 cells (Homo sapiens, UniProt P05556+P13612). The data set can be described thus: α4β1-VCAM Cell Adhesion Assay. The format is cell-based. The conditions noted are these: thioether peptide dimers, Table 7; read-out: Cell Adhesion A4B1. How it is done: α4β1-VCAM Cell Adhesion Assay
Jurkat E6.1 cells (Sigma #88042803) were cultured in RPMI 1640 HEPES medium (Invitrogen #22400-089) supplemented with 10% serum (Fetal Bovine Serum, Invitrogen #16140-071), 1 mM sodium pyruvate (Invitrogen #11360-070), 2 mM L-glutamine (Invitrogen #25030-081) and Penicillin-Streptomycin (Invitrogen #15140-122) at 100 units of penicillin and 100 μg of streptomycin per ml. The cells were washed two times in DMEM medium (ATCC #30-2002) supplemented with 0.1% BSA, 10 mM HEPES pH 7 and 1 mM MnCl2. The cells were re-suspended in supplemented DMEM medium at a density of 4×10^6 cells/ml.
A Nunc MaxiSorp plate was coated with rh VCAM-1/CD106 Fc chimera (R&D #862-VC) at 400 ng per well in 50 μl per well in 1×PBS and incubated at 4° C. overnight. The solution was then removed by shaking, blocked with 250 μl per well PBS containing 1% BSA, and incubated at 37° C. for 1 hr. The solution was removed by shaking. Peptides were diluted by serial dilution in a final volume of 50 μl per well (2× concentration). To each well, 50 μl of cells (200,000 cells) were added and the plate was incubated at 37° C., 5% CO2 for 30-45 min to allow cell adhesion. The wells were washed manually three times (100 μl per wash) with supplemented DMEM. After the final wash, 100 μl/well of supplemented DMEM and 10 ul/well of MTT reagent (ATTC cat #30-1010K) were added. The plate was incubated at 37° C., 5% CO2 for 2-3 hrs until a purple precipitate is visible. 100 ul of Detergent Reagent (ATTC cat #30-1010K) is added to each well. The plate was covered from the light, wrapped in Parafilm to prevent evaporation, and left overnight at room temperature in the dark. The plate was shaken for 5 min and the absorbance at 570 nm is measured. To calculate the dose response, the absorbance value of control wells not containing cells was subtracted from each test well.

Where [2] appears, read: thioether peptide dimers, Table 7.
Where [3] appears, read: thioether monomer peptides, Table 6.

Sequence of Jurkat E6.1 cells (P13612 34-1032): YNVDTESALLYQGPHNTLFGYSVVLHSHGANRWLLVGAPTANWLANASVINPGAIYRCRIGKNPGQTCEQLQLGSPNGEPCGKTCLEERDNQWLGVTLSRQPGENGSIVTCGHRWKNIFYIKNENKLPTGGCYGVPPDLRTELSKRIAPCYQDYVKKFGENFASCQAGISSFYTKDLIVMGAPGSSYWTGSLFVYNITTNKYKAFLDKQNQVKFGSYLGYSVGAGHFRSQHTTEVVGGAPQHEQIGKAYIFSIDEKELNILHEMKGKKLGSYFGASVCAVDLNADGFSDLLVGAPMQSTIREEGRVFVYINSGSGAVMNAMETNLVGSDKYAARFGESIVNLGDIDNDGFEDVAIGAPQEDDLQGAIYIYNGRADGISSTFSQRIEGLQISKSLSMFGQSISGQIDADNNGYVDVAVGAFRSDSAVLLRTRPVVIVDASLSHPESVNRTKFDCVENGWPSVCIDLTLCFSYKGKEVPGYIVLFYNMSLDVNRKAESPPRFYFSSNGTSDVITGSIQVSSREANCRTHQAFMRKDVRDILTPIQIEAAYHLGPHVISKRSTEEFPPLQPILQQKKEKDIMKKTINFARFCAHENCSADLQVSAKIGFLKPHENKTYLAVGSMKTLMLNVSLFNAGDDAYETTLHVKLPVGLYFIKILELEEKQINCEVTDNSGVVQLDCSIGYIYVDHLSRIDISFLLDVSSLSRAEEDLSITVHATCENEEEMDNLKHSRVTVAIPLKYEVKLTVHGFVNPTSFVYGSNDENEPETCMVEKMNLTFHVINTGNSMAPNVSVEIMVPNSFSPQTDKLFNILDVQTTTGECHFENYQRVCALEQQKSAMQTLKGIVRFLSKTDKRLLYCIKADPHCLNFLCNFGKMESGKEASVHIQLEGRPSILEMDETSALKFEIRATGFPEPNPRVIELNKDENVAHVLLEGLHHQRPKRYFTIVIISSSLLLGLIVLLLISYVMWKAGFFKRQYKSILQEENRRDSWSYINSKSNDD
Sequence of Jurkat E6.1 cells (P05556 21-798): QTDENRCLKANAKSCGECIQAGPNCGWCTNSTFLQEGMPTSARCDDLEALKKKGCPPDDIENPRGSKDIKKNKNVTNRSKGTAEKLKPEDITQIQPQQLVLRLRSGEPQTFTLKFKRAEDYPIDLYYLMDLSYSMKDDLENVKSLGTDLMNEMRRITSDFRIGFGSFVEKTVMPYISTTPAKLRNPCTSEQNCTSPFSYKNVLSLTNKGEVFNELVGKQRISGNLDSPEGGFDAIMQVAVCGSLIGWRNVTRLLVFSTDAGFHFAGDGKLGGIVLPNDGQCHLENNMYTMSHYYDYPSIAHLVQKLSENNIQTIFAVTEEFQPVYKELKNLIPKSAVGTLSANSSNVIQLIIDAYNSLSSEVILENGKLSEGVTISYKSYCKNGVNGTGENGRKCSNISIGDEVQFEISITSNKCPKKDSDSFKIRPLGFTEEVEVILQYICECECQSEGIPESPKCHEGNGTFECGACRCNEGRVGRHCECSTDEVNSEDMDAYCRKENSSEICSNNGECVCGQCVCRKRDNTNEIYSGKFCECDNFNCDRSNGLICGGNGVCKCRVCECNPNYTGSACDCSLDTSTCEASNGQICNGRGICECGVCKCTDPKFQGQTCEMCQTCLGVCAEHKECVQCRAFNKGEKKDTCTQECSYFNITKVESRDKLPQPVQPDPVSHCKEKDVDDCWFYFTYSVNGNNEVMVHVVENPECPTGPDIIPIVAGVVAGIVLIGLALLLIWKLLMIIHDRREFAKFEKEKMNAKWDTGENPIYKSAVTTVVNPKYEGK

Consider `CC(C)C[C@@H]1NC(=O)[C@H]([C@@H](C)O)NC(=O)[C@H](CC(=O)O)NC(=O)[C@H](CO)NC(=O)[C@H](CCCNC(=N)N)N(C)C(=O)C(C)SC[C@@H](C(=O)N[C@@H](Cc2c[nH]c3ccccc23)C(=O)N[C@H](CCCCN)C(N)=O)NC1=O` (single isomer, unassigned) [compound 144], for which the IC50 at α4β1 (setting [2]) was greater than 1000 nM. The molecule further came in with a half-life at 22 μM in data set [1] (dimers, Table 7) of less than 20 min.

As to `CC(C)C[C@@H]1NC(=O)[C@H]([C@@H](C)O)NC(=O)[C@H](CC(=O)O)NC(=O)[C@H](CO)NC(=O)[C@H](CCCNC(=N)N)N(C)C(=O)c2ccccc2CSC[C@@H](C(=O)N[C@@H](Cc2c[nH]c3ccccc23)C(=O)N[C@@H](CCC(=O)O)C(=O)N[C@H](CCCCN)C(N)=O)NC1=O` [compound 55] (HELM PEPTIDE1{[meR].S.D.T.L.C.W.E.[dK].[am]}|CHEM1{[O=C(c1ccccc1C[*:2])[*:1]]}$PEPTIDE1,CHEM1,1:R1-1:R1|PEPTIDE1,CHEM1,6:R3-1:R2$$$V2.0), the IC50 at α4β1 (setting [3]) was in the range of 100 to 1000 nM. The molecule also gave a half-life at 22 μM in data set [1] (monomers, Table 6) of 25 min.

On to `CC(=O)NCCCC[C@@H](NC(=O)[C@@H](CCC(=O)O)NC(=O)[C@H](Cc1c[nH]c2ccccc12)NC(=O)[C@H]1NC(=O)[C@H](CC(C)C)NC(=O)[C@H]([C@@H](C)O)NC(=O)[C@H](CC(=O)O)NC(=O)[C@H](CO)NC(=O)[C@H](CCCNC(=N)N)N(C)C(=O)c2ccccc2CSC1(C)C)C(N)=O` [compound 81] (HELM PEPTIDE1{[meR].S.D.T.L.[Pen].W.[dE].[dK].[am]}|PEPTIDE2{[ac]}|CHEM1{[O=C(c1ccccc1C[*:2])[*:1]]}$PEPTIDE1,PEPTIDE2,9:R3-1:R2|PEPTIDE1,CHEM1,1:R1-1:R1|PEPTIDE1,CHEM1,6:R3-1:R2$$$V2.0), for which, on α4β1 (setting [3]), the IC50 fell in the range of 100 to 1000 nM.

Regarding `CC(C)C[C@@H]1NC(=O)[C@H]([C@@H](C)O)NC(=O)[C@H](CC(=O)O)NC(=O)[C@H](CO)NC(=O)[C@H](CCCNC(=N)N)N(C)C(=O)c2ccccc2CSC(C)(C)[C@@H](C(=O)N[C@@H](Cc2ccc3ccccc3c2)C(=O)N[C@H](CCC(=O)O)C(N)=O)NC1=O` [compound 114] (HELM PEPTIDE1{[meR].S.D.T.L.[Pen].[O=C([C@H](Cc1ccc2ccccc2c1)N[*:1])[*:2]].[dE].[am]}|CHEM1{[O=C(c1ccccc1C[*:2])[*:1]]}$PEPTIDE1,CHEM1,1:R1-1:R1|PEPTIDE1,CHEM1,6:R3-1:R2$$$V2.0), the IC50 on α4β1 (setting [3]) is 25 to 100 nM. The molecule also displayed a half-life at 22 μM in data set [1] (monomers, Table 6) greater than 180 min.

For `CC(C)C[C@@H]1NC(=O)[C@H]([C@@H](C)O)NC(=O)[C@H](CC(=O)O)NC(=O)[C@H](CO)NC(=O)[C@H](CCCNC(=N)N)N(C)C(=O)CSC[C@@H](C(=O)N[C@@H](Cc2c[nH]c3ccccc23)C(=O)N[C@H](CCCCNC(=O)COCC(=O)NCCCC[C@@H](NC(=O)[C@H](Cc2c[nH]c3ccccc23)NC(=O)[C@@H]2CSCC(=O)N(C)[C@@H](CCCNC(=N)N)C(=O)N[C@@H](CO)C(=O)N[C@@H](CC(=O)O)C(=O)N[C@@H]([C@@H](C)O)C(=O)N[C@@H](CC(C)C)C(=O)N2)C(N)=O)C(N)=O)NC1=O` [compound 143], the IC50 at α4β1 (setting [2]) is greater than 1000 nM.

Regarding `CC(C)C[C@@H]1NC(=O)[C@H]([C@@H](C)O)NC(=O)[C@H](CC(=O)O)NC(=O)[C@H](CO)NC(=O)[C@H](CCCNC(=N)N)N(C)C(=O)c2ccccc2CSC[C@H](C(=O)N[C@@H](Cc2c[nH]c3ccccc23)C(=O)N[C@@H](CCC(=O)O)CC(=O)N[C@H](CCCCNC(=O)COCC(=O)NCCCC[C@@H](NC(=O)C[C@H](CCC(=O)O)NC(=O)[C@H](Cc2c[nH]c3ccccc23)NC(=O)[C@H]2CSCc3ccccc3C(=O)N(C)[C@@H](CCCNC(=N)N)C(=O)N[C@@H](CO)C(=O)N[C@@H](CC(=O)O)C(=O)N[C@@H]([C@@H](C)O)C(=O)N[C@@H](CC(C)C)C(=O)N2)C(N)=O)C(N)=O)NC1=O` [compound 156] (I: [NMeR]SDTL[dC]W[β3hE][dK]-NH2 / II: [NMeR]SDTL[dC]W[β3hE][dK]-NH2; linker I:9-II:9 via Diglycolyl; linker I:N-I:6, II:N-II:6 via X1), the IC50 on α4β1 (setting [2]) was 25 to 100 nM; at Jurkat E6.1 cells it was greater than 100000 nM. In data set [1] (dimers, Table 7), this molecule had a half-life greater than 180 min.

`CC(C)C[C@@H]1NC(=O)[C@H]([C@@H](C)O)NC(=O)[C@H](CC(=O)O)NC(=O)[C@H](CO)NC(=O)[C@H](CCCNC(=N)N)N(C)C(=O)c2ccccc2CSCC[C@@H](C(=O)N[C@@H](Cc2c[nH]c3ccccc23)C(=O)N[C@@H](CCC(=O)O)C(=O)N[C@H](CCCCNC(=O)COCC(=O)NCCCC[C@@H](NC(=O)[C@H](CCC(=O)O)NC(=O)[C@H](Cc2c[nH]c3ccccc23)NC(=O)[C@@H]2CCSCc3ccccc3C(=O)N(C)[C@@H](CCCNC(=N)N)C(=O)N[C@@H](CO)C(=O)N[C@@H](CC(=O)O)C(=O)N[C@@H]([C@@H](C)O)C(=O)N[C@@H](CC(C)C)C(=O)N2)C(N)=O)C(N)=O)NC1=O` [compound 157] (I: [NMeR]SDTL[hCys]WE[dK]-NH2 / II: [NMeR]SDTL[hCys]WE[dK]-NH2; linker I:9-II:9 via Diglycolyl; linker I:N-I:6, II:N-II:6 via X1): at α4β1 (setting [2]), the IC50 was 100 to 1000 nM. Also, the half-life in data set [1] (dimers, Table 7) is less than 20 min.

`CC(C)C[C@@H]1NC(=O)[C@H]([C@@H](C)O)NC(=O)[C@H](CC(=O)O)NC(=O)[C@H](CO)NC(=O)[C@H](CCCNC(=N)N)N(C)C(=O)c2ccccc2CSC(C)(C)[C@@H](C(=O)N[C@@H](Cc2ccc(C(F)(F)F)cc2)C(=O)N[C@@H](CCC(=O)O)C(=O)N[C@H](CCCCNC(=O)COCC(=O)NCCCC[C@@H](NC(=O)[C@H](CCC(=O)O)NC(=O)[C@H](Cc2ccc(C(F)(F)F)cc2)NC(=O)[C@H]2NC(=O)[C@H](CC(C)C)NC(=O)[C@H]([C@@H](C)O)NC(=O)[C@H](CC(=O)O)NC(=O)[C@H](CO)NC(=O)[C@H](CCCNC(=N)N)N(C)C(=O)c3ccccc3CSC2(C)C)C(N)=O)C(N)=O)NC1=O` [compound 166] (I: [NMeR]SDTL[Pen][Phe(4-CF3)]E[dK]-NH2 / II: [NMeR]SDTL[Pen][Phe(4-CF3)]E[dK]-NH2; linker I:9-II:9 via Diglycolyl; linker I:N-I:6, II:N-II:6 via X1): the IC50 on α4β1 (setting [2]) fell in the range of 25 to 100 nM. In data set [1] (dimers, Table 7), the half-life is 30 min.
